The term EC50 denotes the midpoint of the concentration-response curve. Read a high EC50 as a less potent agent.

Molecules are shown by their SMILES. Where only a bound is given, the exact number is not on record here.

Tested on in the first assay: not listed separately
The assay can be described thus: Ratio of EC50 for CRISPR PAICS knock out mouse LM2 cells to EC50 for mouse wild type LM2 cells. Type of assay: functional.
Settings: not given
In the case of `CN(C)CCCOc1ncc(-c2ccc(Cl)c(NC(=O)c3coc(N)n3)c2)s1`, the “Ratio EC50” value was greater than 30. Consider `CCNCCCn1cc(-c2ccc(Cl)c(NC(=O)c3coc(N)n3)c2)cn1`, for which the “Ratio EC50” value is greater than 80. Consider `CN1CCN(c2ccc(-c3ccc(Cl)c(NC(=O)c4coc(N)n4)c3)cn2)CC1`, for which the “Ratio EC50” value was greater than 10.

Tested on in another assay: not listed separately
The assay can be described thus: Antiproliferative activity against mouse LM2 cells after 72 hrs by Celltiter-glo luminescence assay. Type of assay: functional, cell-based.
Settings: not given
Background: Cellular ATP, detected with luciferase, serves as a proxy for viable cell number.
Take `CN(C)CCCOc1ccc(-c2ccc(Cl)c(NC(=O)c3coc(N)n3)c2)cn1`: the EC50 fell in the range of 100 to 250 nM. The same measure, in the same setting: for `CCNCCn1cc(-c2ccc(Cl)c(NC(=O)c3coc(N)n3)c2)cn1` the value was 100 to 250 nM; for `CNC1CCCN(Cc2ncc(-c3ccc(Cl)c(NC(=O)c4coc(N)n4)c3)s2)C1` (configuration not stated), 100 to 250 nM; for `CN1CC(n2cc(-c3ccc(Cl)c(NC(=O)c4coc(N)n4)c3)cn2)C1`, 100 to 250 nM. For `CN1CCC(NC(=O)Cn2cc(-c3ccc(Cl)c(NC(=O)c4coc(N)n4)c3)cn2)CC1`, the EC50 is 250 to 500 nM. Consider `Nc1nc(C(=O)Nc2cc(-c3cnn(C4CCNCC4)c3)ccc2Cl)co1`, for which the EC50 lay within 250 to 500 nM. As for `Nc1nc(C(=O)Nc2cc(-c3cnn(CCCN4CCNCC4)c3)ccc2Cl)co1`, the EC50 was in the range of 100 to 250 nM. Molecule `CNCCCOc1ccc(-c2ccc(Cl)c(NC(=O)c3coc(N)n3)c2)cn1` had an EC50 of 100 to 250 nM. Take `Nc1nc(C(=O)Nc2cc(-c3ccn(C4CCNCC4)n3)ccc2Cl)co1`: the EC50 is 250 to 500 nM. In turn, `CN1CCN(CCn2cc(-c3ccc(Cl)c(NC(=O)c4coc(N)n4)c3)cn2)CC1` showed an EC50 of 250 to 500 nM.

In the case of `CN(C)CCC(=O)N1CC(Cn2cc(-c3ccc(Cl)c(NC(=O)c4coc(N)n4)c3)cn2)C1`, the EC50 lay in the range of 250 to 500 nM. `CSc1ccc(-c2nc(CN3CCNCC3)cs2)cc1NC(=O)c1coc(N)n1` had an EC50 of less than 100 nM.

`CNC1CCN(Cc2ncc(-c3ccc(Cl)c(NC(=O)c4coc(N)n4)c3)s2)CC1`: the EC50 is less than 100 nM. `Nc1nc(C(=O)Nc2cc(-c3ccc(OC4CCNC4)nc3)ccc2Cl)co1` (configuration not stated) yielded an EC50 of 250 to 500 nM. As for `Nc1nc(C(=O)Nc2cc(-c3cnn(C4CCNC4)c3)ccc2Cl)co1` (configuration not stated), the EC50 lay in the range of 100 to 250 nM. On the same count and under the same terms, as for `Nc1nc(C(=O)Nc2cc(-c3cnn(C4CCN(CCO)CC4)c3)ccc2Cl)co1`, the figure is 100 to 250 nM. In turn, `CN(C)CCCOc1ncc(-c2ccc(Cl)c(NC(=O)c3coc(N)n3)c2)s1` registered an EC50 of less than 100 nM. With `CN(C)CCCOc1nc(-c2ccc(Cl)c(NC(=O)c3coc(N)n3)c2)cs1`, the concentration giving a half-maximal response (EC50) was 250 to 500 nM. The molecule `CN(C)CCOc1ccc(-c2ccc(Cl)c(NC(=O)c3coc(N)n3)c2)cn1` returned an EC50 of 250 to 500 nM.

For `CNCC1CCN(Cc2ncc(-c3ccc(Cl)c(NC(=O)c4coc(N)n4)c3)s2)CC1`, the EC50 is less than 100 nM. On to `CN1CCN(c2ncc(-c3ccc(Cl)c(NC(=O)c4coc(N)n4)c3)s2)CC1`, for which the EC50 was in the range of 100 to 250 nM. `CCN(CC)CCCOc1ncc(-c2ccc(Cl)c(NC(=O)c3coc(N)n3)c2)s1` came in with a concentration giving a half-maximal response (EC50) of less than 100 nM.

`Nc1nc(C(=O)Nc2cc(-c3ccc(CN4CCNCC4)nc3)ccc2Cl)co1` registered an EC50 of 250 to 500 nM.

In the case of `Nc1nc(C(=O)Nc2cc(-c3ccc(OCC4CCCNC4)nc3)ccc2Cl)co1` (configuration not stated), the EC50 lay in the range of 250 to 500 nM. With `Nc1nc(C(=O)Nc2cc(-c3ccc(CN4CC5CNCC5C4)nc3)ccc2Cl)co1` (configuration not stated), the EC50 lay in the range of 250 to 500 nM. `Cc1nn(C2CCNCC2)cc1-c1ccc(Cl)c(NC(=O)c2coc(N)n2)c1` came in with an EC50 of 100 to 250 nM.

With `CN1CCC(NCc2ccc(-c3ccc(Cl)c(NC(=O)c4coc(N)n4)c3)cn2)CC1`, the EC50 lay in the range of 100 to 250 nM. The same measure, in the same setting: for `CNC1CCC(n2cc(-c3ccc(Cl)c(NC(=O)c4coc(N)n4)c3)cn2)CC1` (mixture of isomers) the value was less than 100 nM. In turn, `CN(C)CCC(=O)N1CCC(n2cc(-c3ccc(Cl)c(NC(=O)c4coc(N)n4)c3)cn2)CC1` gave an EC50 of 250 to 500 nM. In turn, `CCNCCCn1cc(-c2ccc(Cl)c(NC(=O)c3coc(N)n3)c2)cn1` came in with an EC50 of less than 100 nM. Molecule `Nc1nc(C(=O)Nc2cc(-c3ccc(OC4CCNCC4)nc3)ccc2Cl)co1` registered a concentration giving a half-maximal response (EC50) of 250 to 500 nM. As for `CN1CCN(c2ccc(-c3ccc(Cl)c(NC(=O)c4coc(N)n4)c3)cn2)CC1`, the EC50 lay in the range of 100 to 250 nM.

In turn, `CSc1ccc(-c2cnc(OCCCN(C)C)s2)cc1NC(=O)c1coc(N)n1` registered an EC50 of 100 to 250 nM.

Molecule `Nc1nc(C(=O)Nc2cc(-c3ccc(CN4CCNCC4)cc3)ccc2Cl)co1` yielded an EC50 of 250 to 500 nM. The molecule `CN(C)CCCn1cc(-c2ccc(Cl)c(NC(=O)c3coc(N)n3)c2)cn1` gave an EC50 of 100 to 250 nM. As for `N#Cc1nn(C2CCNCC2)cc1-c1ccc(Cl)c(NC(=O)c2coc(N)n2)c1`, the EC50 is 100 to 250 nM.

`CN1CCN(CCCn2cc(-c3ccc(Cl)c(NC(=O)c4coc(N)n4)c3)cn2)CC1` showed a concentration for a half-maximal effect (EC50) of 100 to 250 nM. Same read-out and setting: for `CN(C)C1CCN(Cc2csc(-c3ccc(Cl)c(NC(=O)c4coc(N)n4)c3)n2)CC1` the value was 100 to 250 nM; for `CN(C)CCOc1ccc(-c2ccc(Cl)c(NC(=O)c3coc(N)n3)c2)cc1`, 100 to 250 nM; for `Nc1nc(C(=O)Nc2cc(-c3nc(CN4CCNCC4)cs3)ccc2Cl)co1`, less than 100 nM. Regarding `Nc1nc(C(=O)Nc2cc(-c3ccc(CN[C@H]4CC[C@H](N)CC4)nc3)ccc2Cl)co1`, the EC50 lay in the range of 250 to 500 nM. Molecule `CN(C)C1CCN(C(=O)Cn2cc(-c3ccc(Cl)c(NC(=O)c4coc(N)n4)c3)cn2)CC1` yielded an EC50 of 250 to 500 nM. On the same count and under the same terms, as for `CSc1ccc(-c2ccc(OCCCN(C)C)nc2)cc1NC(=O)c1coc(N)n1`, the figure is 250 to 500 nM; as for `Nc1nc(C(=O)Nc2cc(-c3cnn(C4CCCNC4)c3)ccc2Cl)co1` (configuration not stated), 100 to 250 nM. `CC1CN(C(=O)Cn2cc(-c3ccc(Cl)c(NC(=O)c4coc(N)n4)c3)cn2)CCN1` (configuration not stated) came in with a concentration for a half-maximal effect (EC50) of 250 to 500 nM. `CN(C)CCOc1ncc(-c2ccc(Cl)c(NC(=O)c3coc(N)n3)c2)cn1` returned an EC50 of 250 to 500 nM. On the same count and under the same terms, as for `CN(C)CCCC(=O)N1CCC(n2cc(-c3ccc(Cl)c(NC(=O)c4coc(N)n4)c3)cn2)CC1`, the figure is 250 to 500 nM; as for `CN(C)CCNC(=O)Cn1cc(-c2ccc(Cl)c(NC(=O)c3coc(N)n3)c2)cn1`, 250 to 500 nM.

`CNCCn1cc(-c2ccc(Cl)c(NC(=O)c3coc(N)n3)c2)cn1` displayed an EC50 of 100 to 250 nM. On the same count and under the same terms, as for `CN(C)CCCc1ncc(-c2ccc(Cl)c(NC(=O)c3coc(N)n3)c2)s1`, the figure is less than 100 nM. `Nc1nc(C(=O)Nc2cc(-c3cnn(CCN4CCNCC4)c3)ccc2Cl)co1` came in with a concentration for a half-maximal effect (EC50) of 250 to 500 nM. On to `Nc1nc(C(=O)Nc2cc(-c3cnc(CN4CCNCC4)s3)ccc2Cl)co1`, for which the EC50 was 100 to 250 nM.

`Nc1nc(C(=O)Nc2cc(-c3cnn(CCCNC4CC4)c3)ccc2Cl)co1` had a 50% effective concentration (EC50) of 100 to 250 nM. For the molecule `CNCCCn1cc(-c2ccc(Cl)c(NC(=O)c3coc(N)n3)c2)cn1`, the concentration for a half-maximal effect (EC50) was less than 100 nM. Still for that read-out and setting: for `CN1CCN(Cc2ccc(-c3ccc(Cl)c(NC(=O)c4coc(N)n4)c3)cn2)CC1` the value was 250 to 500 nM.

For `Nc1nc(C(=O)Nc2cc(-c3cnc(OC4CCNCC4)s3)ccc2Cl)co1`, the EC50 is less than 100 nM. `Nc1nc(C(=O)Nc2cc(-c3cnc(OC4CCNCC4)nc3)ccc2Cl)co1` registered an EC50 of 250 to 500 nM. As for `Nc1nc(C(=O)Nc2cc(-c3ccc(N4CCNCC4)cc3)ccc2Cl)co1`, the EC50 lay in the range of 250 to 500 nM. In the case of `CN1CCC(n2cc(-c3ccc(Cl)c(NC(=O)c4coc(N)n4)c3)cn2)CC1`, the 50% effective concentration (EC50) lay within 100 to 250 nM. For the molecule `CN(C)CC(=O)N1CCC(n2cc(-c3ccc(Cl)c(NC(=O)c4coc(N)n4)c3)cn2)CC1`, the EC50 is 100 to 250 nM. On the same count and under the same terms, as for `CN(C)CCCOc1ccc(-c2ccc(Cl)c(NC(=O)c3coc(N)n3)c2)nc1`, the figure is 250 to 500 nM; as for `CC(C)NCCCOc1ccc(-c2ccc(Cl)c(NC(=O)c3coc(N)n3)c2)cn1`, 100 to 250 nM.

For `CNC1CCCN(Cc2csc(-c3ccc(Cl)c(NC(=O)c4coc(N)n4)c3)n2)C1` (configuration not stated), the EC50 is less than 100 nM.

For another assay, the system named is MDA-MB-231. Put plainly: Antiproliferative activity against human MDA-MB-231 cells after 72 hrs by Celltiter-glo luminescence assay. Type of assay: functional, cell-based. The settings on record: MDA-MB-231, 72 h.
Turning to `CN(C)CCCOc1nc(-c2ccc(Cl)c(NC(=O)c3coc(N)n3)c2)cs1`, the EC50 is 250 to 500 nM.

The record behind these values is ChEMBL document CHEMBL4418316, “Oxazole derivatives for use in the treatment of cancer” (2018).
